# Reference: patent publication US20230091225A1, “Bifunctional chimeric heterocyclic compounds for targeted degradation of androgen receptors and use thereof” (HINOVA PHARMACEUTICALS INC., priority 2019, published 2023)
# Molecular target: T1, androgen receptor (AR) (Homo sapiens, UniProt P10275)
# T1 sequence (P10275 1-920): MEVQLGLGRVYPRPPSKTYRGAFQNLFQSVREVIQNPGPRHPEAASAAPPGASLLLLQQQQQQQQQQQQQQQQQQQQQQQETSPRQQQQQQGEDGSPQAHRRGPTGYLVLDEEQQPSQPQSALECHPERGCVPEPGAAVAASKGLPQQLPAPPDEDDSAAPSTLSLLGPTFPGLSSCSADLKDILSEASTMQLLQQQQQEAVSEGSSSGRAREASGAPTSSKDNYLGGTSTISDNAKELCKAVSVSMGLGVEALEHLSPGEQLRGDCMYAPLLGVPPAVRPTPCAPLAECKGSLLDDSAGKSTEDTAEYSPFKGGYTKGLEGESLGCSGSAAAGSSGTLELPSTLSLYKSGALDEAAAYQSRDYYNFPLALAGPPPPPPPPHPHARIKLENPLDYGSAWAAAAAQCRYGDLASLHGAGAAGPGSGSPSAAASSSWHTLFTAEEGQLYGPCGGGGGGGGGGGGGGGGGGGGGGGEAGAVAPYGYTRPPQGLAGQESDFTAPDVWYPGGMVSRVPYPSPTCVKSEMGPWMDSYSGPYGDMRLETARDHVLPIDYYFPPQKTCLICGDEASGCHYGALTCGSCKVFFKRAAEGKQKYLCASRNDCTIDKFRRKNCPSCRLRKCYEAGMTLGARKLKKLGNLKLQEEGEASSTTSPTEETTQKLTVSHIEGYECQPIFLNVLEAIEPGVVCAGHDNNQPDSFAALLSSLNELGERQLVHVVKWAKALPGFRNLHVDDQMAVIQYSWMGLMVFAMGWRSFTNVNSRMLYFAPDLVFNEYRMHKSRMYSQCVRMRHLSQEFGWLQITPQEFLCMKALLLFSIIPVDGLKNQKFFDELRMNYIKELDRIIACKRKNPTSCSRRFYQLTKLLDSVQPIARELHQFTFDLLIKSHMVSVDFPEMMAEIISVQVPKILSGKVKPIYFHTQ
# Assay: Degradation of androgen receptor (AR) protein in VCaP cells by Western blot
# Assay type: cell-based
# Conditions: percentage of degraded AR at 100 nM, VCaP cells, 16 h
# Description: Determination of the Degradation Activity of the Compound on Androgen Receptor (AR) Protein by Western Blot
# 1) VCaP cells were subcultured in cell culture media, and then the cells in good growth condition were seeded in a 12-well plate at 1 ml/well (5×10^5 cells/well), and cultured overnight in a 37° C., 5% CO2 cell incubator. 2) The test compound was prepared into a 10 mM stock solution with dimethyl sulfoxide (DMSO). Prior to use, the solution was diluted 3 times with DMSO. […] of the diluted compound solution was added to the cell culture well (ensuring that the DMSO concentration in the culture system was 0.1%), and two wells were set for each concentration. The plate was gently shaken to mix. In addition, the experiment included negative control wells (containing equal amount of DMSO) and positive control wells. 3) After culturing 16 h. the cells were lysed with RIPA cell lysate, and the protein was extracted. The protein concentration was measured with BCA kit. 5-fold concentrated protein loading buffer was added, and after heated at 100° C. for 5 min. the sample was stored at −20° C. 4) for each well, 30 μg of protein was loaded on polyacrylamide gel for electrophoresis. 5) The protein was transferred from polyacrylamide gel to PVDF membrane, and then 5% skim milk was added to close for 1 h at room temperature. The first antibody (Androgen Receptor (D6F11) XP Rabbit mAb and Anti-β-Actin Rabbit mAb) was added and incubated overnight at 4° C. The membrane was washed with TBST solution three times. 10 min for each time. The secondary antibody (horseradish peroxidase labeled goat […]) was added and incubated at room temperature for 2 h, and then the membrane was washed with TBST solution three times. 10 min for each time.
# Finally, ECL chemiluminescence solution was added, and then photos were taken with automatic chemiluminescence instrument to collect pictures for analysis.
Compound,inhibition at 0.1 µM,% degradation
"N#Cc1ccc(O[C@H]2C[C@@H]3CN(C(=O)c4ccc(N5CCC(CN6CCN(c7ccc8c(c7)C(=O)N(C7CCC(=O)NC7=O)C8=O)CC6)CC5)nn4)C[C@@H]3C2)cc1Cl (stereo partly drawn) [Compound 175, 2-chloro-4-(((3aR,5s,6aS)-2-(6-(4-((4-(2-(2,6-dioxopiperidin-3-yl)-1,3-dioxoisoindolin-5-yl)piperazin-1-yl)methyl)piperidin-1-yl)pyridazine-3-carbonyl)octahydrocyclopenta[c]pyrrol-5-yl)oxy)benzonitrile]",< 25%,
"N#Cc1ccc(OC2CCC(NC(=O)c3cnc(N4CCC(NC5CCN(c6cc7c(cc6F)C(=O)N(C6CCC(=O)NC6=O)C7=O)CC5)CC4)cn3)CC2)cc1Cl (stereo not shown) [Compound 73, N-((1r,4r)-4-(3-chloro-4-cyanophenoxy)cyclohexyl)-5-(4-((1-(2,6-dioxopiperidin-3-yl-6-fluoro-1,3-dioxoisoindolin-5-yl)piperidine-4-yl)amino)piperidin-1-yl)pyrazine-2-carboxamide]",,A (>80%)
"CC1(C)[C@H](Oc2ccc(C#N)c(Cl)c2)C(C)(C)[C@H]1N1Cc2nc(C#CC3CC(NC4CCN(c5ccc6c(c5)C(=O)N(C5CCC(=O)NC5=O)C6=O)CC4)C3)ccc2C1=O (stereo partly shown) [Compound 327, 2-Chloro-4-((1r,3r)-3-(2-((3-(1-(2-(2,6-dioxopiperidin-3-yl)-1,3-dioxoisoindolin-5-yl)piperidine-4-ylamino)cyclobutyl)ethynyl)-5-oxo-5,7-dihydro-pyrrolo[3,4-b]pyridin-6-yl)-2,2,4,4-tetramethylcyclobutoxy)benzonitrile]",50 to 79%,
N#Cc1ccc(O[C@H]2CC[C@H](NC(=O)c3ccc(N4CCC5(CC4)CN(C4CCN(c6cc7c(cc6F)C(=O)N(C6CCC(=O)NC6=O)C7=O)CC4)C5)nn3)CC2)cc1Cl (stereo partly shown) [Compound 71],> 80%,
"CC1(C)[C@H](NC(=O)c2ccc(N3CCC(NC4CCN(c5cc6c(cc5F)C(=O)N(C5CCC(=O)NC5=O)C6=O)CC4)CC3)nn2)C(C)(C)[C@H]1Oc1ccc(C#N)c(Cl)c1 (stereo partly shown) [Compound 291, N-((1r,3r)-3-(3-chloro-4-cyanophenoxy)-2,2,4,4-tetramethylcyclobutyl)-6-(4-((1-(2-(2,6-dioxopiperidin-3-yl)-6-fluoro-1,3-dioxoisoindoline)piperidine-4-yl)amino)piperidin-1-yl)pyridazine-3-formamide]",50 to 79%,
"N#Cc1ccc(O[C@H]2CC[C@H](NC(=O)c3ccc(N4CCC(N5CC6(CCN(c7cc8c(cc7F)C(=O)N(C7CCC(=O)NC7=O)C8=O)CC6)C5)CC4)nn3)CC2)cc1Cl (stereo partly drawn) [Compound 61, N-((1R,4R)-4-(3-chloro-4-cyanophenoxy)cyclohexyl)-6-(4-(7-(2-(2,6-dioxopiperidin-3-yl)-6-fluoro-1,3-dioxoisoindolin-5-yl)-2,7-diazaspiro[3.5]nonyl-2-yl)piperidin-1-yl)pyridazine-3-carboxamide]",> 80%,
"N#Cc1ccc(O[C@H]2CC[C@H](NC(=O)c3cnc(N4CCC(CN5CC6CN(c7ccc8c(c7)C(=O)N(C7CCC(=O)NC7=O)C8=O)CC6C5)CC4)cn3)CC2)cc1Cl (stereo partly shown) [Compound 254, N-((1r,4r)-4-(3-chloro-4-cyanophenoxy)cyclohexyl)-5-(4-((5-(2-(2,6-dioxopiperidin-3-yl)-1,3-dioxoisoindolin-5-yl)Hexahydropyrrolo[3,4-c]pyrrol-2(11H)-yl)methyl)piperidin-1-yl)pyrazine-2-carboxamide]",50 to 79%,
"N#Cc1ccc(O[C@H]2CC[C@H](NC(=O)c3cnc(N4C[C@H]5C[C@@H](N6CCN(c7cc8c(cc7F)C(=O)N(C7CCC(=O)NC7=O)C8=O)CC6)C[C@H]5C4)cn3)CC2)cc1Cl (stereo partly drawn) [Compound 293, N-((1r,4r)-4-(3-chloro-4-cyanophenoxy)cyclohexyl)-5-((3aR,5R,6aS)-5-(4-(2-(2,6-dioxopiperidin-3-yl)-6-fluoro-1,3-dioxoisoindolin-5-yl)piperazin-1-yl)hexahydrocyclopenta[c]pyrrole-2(1H)-yl)pyrazine-2-carboxamide]",50 to 79%,
"N#Cc1ccc(O[C@H]2CC[C@H](NC(=O)c3cnc(N4CC(N5CC6CN(c7cc8c(cc7F)C(=O)N(C7CCC(=O)NC7=O)C8=O)CC6C5)C4)cn3)CC2)cc1Cl (stereo partly shown) [Compound 225, N-((1r,4r)-4-(3-chloro-4-cyanophenoxy)cyclohexyl)-5-(3-(5-(2-(2,6-dioxopiperidin-3-yl)-6-fluoro-1,3-dioxoisoindolin-5-yl)hexahydropyrrolo[3,4-c]pyrrol-2(1H)-yl)azitidin-1-yl)pyrazine-2-carboxamide]",50 to 79%,
"CC1(C)C(NC(=O)c2ccc(N3C[C@@H]4C(CN5CCN(c6cc7c(cc6F)C(=O)N(C6CCC(=O)NC6=O)C7=O)CC5)[C@@H]4C3)nn2)C(C)(C)C1Oc1ccc(C#N)c(Cl)c1 (stereo partly drawn) [Compound 181, N-((1r,3R)-3-(3-chloro-4-cyanophenoxy)-2,2,4,4-tetramethylcyclobutyl)-6-((1R,5S,6S)-6-((4-(2-(2,6-dioxopiperidin-3-yl)-6-fluoro-1,3-dioxoisoindolin-5-yl)piperazin-1-yl)methyl)-3-azabicyclo[3.1.0]hexan-3-yl)pyridazine-3-formamide]",,B (79%-50%)
"N#Cc1ccc(O[C@H]2CC[C@H](NC(=O)c3ccc(N4CCC(CN5CC6CN(c7cc8c(cc7F)C(=O)N(C7CCC(=O)NC7=O)C8=O)CC6C5)CC4)nn3)CC2)cc1Cl (stereo partly shown) [Compound 253, N-((1r,4r)-4-(3-chloro-4-cyanophenoxy)cyclohexyl)-6-(4-((5-(2-(2,6-dioxopiperidin-3-yl)-6-fluoro-1,3-dioxoisoindolin-5-yl)Hexahydropyrrolo[3,4-c]pyrrol-2(1H)-yl)methyl)piperidin-1-yl)pyridazine-3-formamide]",50 to 79%,
"N#Cc1ccc(O[C@H]2CC[C@H](NC(=O)c3ccc(N4CCC(N5CCC6(CCN(c7cc8c(cc7F)C(=O)N(C7CCC(=O)NC7=O)C8=O)C6)C5)CC4)nn3)CC2)cc1Cl (stereo partly shown) [Compound 164, N-((1r,4r)-4-(3-chloro-4-cyanophenoxy)cyclohexyl)-6-(4-(7-(2-(2,6-dioxopiperidin-3-yl)-6-fluoro-1,3-dioxoisoindol-5-yl)-2,7-diazaspiro[4.4]nonan-2-yl)piperidin-1-yl)pyridazine-3-formamide]",> 80%,
"N#Cc1ccc(O[C@H]2CC[C@H](NC(=O)c3ccc(N4C[C@@H]5[C@@H](CN6CCN(c7ccc8c(c7)C(=O)N(C7CCC(=O)NC7=O)C8=O)CC6)[C@@H]5C4)nn3)CC2)cc1Cl (stereo partly drawn) [Compound 179, N-((1r,4R)-4-(3-chloro-4-cyanophenoxy)cyclohexyl)-6-((1R,5S,6S)-6-((4-(2-(2,6-dioxopiperidin-3-yl)-1,3-dioxoisoindolin-5-yl)piperazin-1-yl)methyl)-3-azabicyclo[3.1.0]hexan-3-yl)pyridazine-3-formamide]",25 to 49%,
"N#Cc1ccc(O[C@H]2CC[C@H](NC(=O)c3ccc(N4CCC5(CN(CC6CCN(c7cc8c(cc7F)C(=O)N(C7CCC(=O)NC7=O)C8=O)CC6)C5)C4)nn3)CC2)cc1Cl (stereo partly shown) [Compound 183, N-((1r,4r)-4-(3-chloro-4-cyanophenoxy)cyclohexyl)-6-(2-((1-(2-(2,6-dioxopiperidin-3-yl)-6-fluoro-1,3-dioxoisoindolin-5-yl)piperidine-4-yl)methyl)-2,6-diazaspiro[3.4]octan-6-yl)pyridazine-3-formamide]",> 80%,
CN(C1CCN(c2cc3c(cc2F)C(=O)N(C2CCC(=O)NC2=O)C3=O)CC1)C1CC(C#Cc2ccc3c(n2)CN([C@H]2C(C)(C)[C@H](Oc4ccc(C#N)c(Cl)c4)C2(C)C)C3=O)C1 (stereo partly shown) [Compound 332],50 to 79%,
CC1(C)[C@H](Oc2ccc(C#N)c(Cl)c2)C(C)(C)[C@H]1N1Cc2nc(C#CC3CC(NC4CCN(c5cc6c(cc5F)C(=O)N(C5CCC(=O)NC5=O)C6=O)CC4)C3)ccc2C1=O (stereo partly shown) [Compound 329],50 to 79%,
